{"source": "paper PMC3501516", "about": "“Anti-Diabetic Efficacy and Impact on Amino Acid Metabolism of GRA1, a Novel Small-Molecule Glucagon Receptor Antagonist” (PLoS ONE, 2012)", "key": {"hGCGR HFD/STZ mice": {"tested_on": "hGCGR HFD/STZ mice", "experiment": "Antihyperglycemic efficacy in hGCGR HFD/STZ mice (acute, chronic, combination with des-fluoro-sitagliptin)", "type": "in vivo, hGCGR mouse", "settings": "GRA1 10 mg/kg, Des-F-sita 200 mg/kg", "source_text": "The present study made use of a line of hGCGR-expressing mouse (“hGCGR mouse”) generated previously by substituting the hGCGR gene for the mouse GCGR gene. These mice were crossed with C57BL/6J.ob/+ mice (Jackson Laboratories, Bar Harbor, ME) to obtain an hGCGR.ob/+ mouse line. The hGCGR.ob/+ mice were then intercrossed to obtain hGCGR.ob/ob, hGCGR.ob/+, and hGCGR.+/+ mice (with the hGCGR.ob/+ and hGCGR.+/+ mice serving as littermate controls). […] obese (DIO) hGCGR mice were generated by maintaining hGCGR mice on a high-fat diet (HFD) in which 45–60% of calories were in fat (Product S3282, Bio-Serv, Frenchtown, NJ). High-fat-diet-streptozotocin-treated (HFD/STZ) diabetic mice were generated in-house as previously described.\nAcute glucose lowering was studied in non-fasted hGCGR.ob/ob mice and HFD/STZ mice administered single doses p.o. of 1, 3 and 10 mg/kg GRA1 in 10 mL/kg 0.5% aqueous methylcellulose. Animals were fasted during the interval between dosing and the final blood glucose measurement. Glucose was measured in blood from tail bleeds using a OneTouch glucometer. In the experiments with hGCGR HFD/STZ mice, treatment groups were matched with respect to body weight and blood glucose levels.\nAnimals were dosed chronically with GRA1 and the DPP-4 inhibitor des-fluoro-sitagliptin by administering these agents as food admixtures. The admixtures were prepared in-house and by Research Diets (New Brunswick, NJ), with drug concentrations adjusted weekly on the basis of average food consumption and animal weight to provide targeted daily doses. In the GRA1 experiments, the targeted doses were 3, 6, 10, and 30 mg/kg•day. In des-fluoro-sitagliptin experiments, the targeted dose was 200 mg/kg•day, a relatively high amount necessary because this compound has a half-life in rodents of 1–2 h.\nPlasma glucagon and active GLP-1 were measured using commercial ELISA kits (Linco Research Immunoassay, St. Charles, MO). […] Plasma insulin was determined by ELISA with a commercial kit (ALPCO Diagnostics, Windham, NH). Plasma concentrations of glycated hemoglobin A1c (HbA1c) were measured using a Micromat II test kit from Bio-Rad Laboratories (Hercules, CA). Total cholesterol, low-density lipoprotein cholesterol (LDL-c) and non-LDL-c, and aspartate aminotransferase were measured using a Roche P Modular Clinical Chemistry analyzer (Indianapolis, IN).\nFigure 5 GRA1 lowers glucose in hGCGR HFD/STZ mice and further enhances the efficacy of a DPP-4 inhibitor. (A) Mean (±SEM) blood glucose hGCGR HFD/STZ mice treated with a single dose of 1, 3, or 10 mg/kg GRA1. (B) Non-fasted blood glucose concentrations in hGCGR HFD/STZ mice treated for 6 weeks with 10 mg/kg·day GRA1, 200 mg/kg·day des-fluoro-sitagliptin (des-F-sita), or the two agents in combination. (Additional data from this study are in Table 4.) *p<0.05, **p<0.01, and ***p<0.001 versus HFD/STZ controls; ^#non-significant (p>0.05) versus non-STZ controls; n = 8–15 animals per group."}, "[1]": {"set-up": "method as in PMID 16731832", "settings": "cited from earlier work"}, "humans": {"tested_on": "humans", "set-up": "method as in earlier work", "settings": "clinical studies in humans, MK-0893 combined with the DPP-4 inhibitor sitagliptin; cited from earlier work"}}, "note": "Marks after values point to notes of the source that are not given here."}
{"smiles": "N[C@@H](CC(=O)N1CCn2c(nnc2C(F)(F)F)C1)Cc1cc(F)ccc1F", "note": "[Des-F-sita, 7-[(3R)-3-amino-1-oxo-4-(2,5-difluorophenyl)butyl]-5,6,7,8-tetrahydro-3-(trifluoromethyl)-1,2,4-triazolo[4,3-α]pyrazine, reference compound]", "values": [{"measurement": "HbA1c", "setting": "hGCGR HFD/STZ mice; 5 weeks of treatment, control diet 6.1±0.4", "value": "5.0±0.4", "unit": "%"}, {"measurement": "6-h fasting blood glucose", "setting": "hGCGR HFD/STZ mice; 5 weeks of treatment, control diet 323±33", "value": "283 ± 34", "unit": "mg/dL"}, {"measurement": "Liver Triglyceride", "setting": "hGCGR HFD/STZ mice; 6 weeks, necropsy tissue, control diet 143±10", "value": "94±15* µg/mg"}, {"measurement": "Free fatty acid", "setting": "hGCGR HFD/STZ mice; 6 weeks, terminal plasma, control diet 1.4±0.2", "value": "1.1 ± 0.1", "unit": "mM"}, {"measurement": "Active GLP-1", "setting": "hGCGR HFD/STZ mice; 6 weeks, terminal plasma, control diet 2.5±0.1", "value": "2.9 ± 0.2", "unit": "pM"}, {"measurement": "Inactive GLP-1", "setting": "hGCGR HFD/STZ mice; 6 weeks, terminal plasma, control diet 8.1±1.1", "value": "3.2±0.2*** pM"}, {"measurement": "Plasma glucagon", "setting": "hGCGR HFD/STZ mice; 6 weeks, terminal plasma, control diet 133±21", "value": "87 ± 4", "unit": "pg/mL"}, {"measurement": "Triglyceride", "setting": "hGCGR HFD/STZ mice; 6 weeks, terminal plasma, control diet 184±26", "value": "161 ± 15", "unit": "mg/dL"}, {"measurement": "Half-life in rodents", "setting": "[1]", "value": "1 to 2", "unit": "h"}]}
{"smiles": "COc1ccc2cc(-c3cc(-c4cc(Cl)cc(Cl)c4)nn3[C@@H](C)c3ccc(C(=O)NCCC(=O)O)cc3)ccc2c1", "note": "[MK-0893, N-[(4-{(1S)-1-[3-(3,5-Dichlorophenyl)-5-(6-methoxynaphthalen-2-yl)-1H-pyrazol-1-yl]ethyl}phenyl)carbonyl]-beta-alanine]", "values": [{"measurement": "Glucose-lowering efficacy of combination with sitagliptin", "setting": "humans", "value": "did not result in significant additional glucose-lowering efficacy"}]}
